{"source": "patent US6649626B1", "about": "“N-substituted 1-(lactone) isoquinolones for treating nervous disorders” (Centre National de la Recherche Scientifique (CNRS), priority 1999, dated 2003)", "key": {"[1]": {"biological_target": "benzodiazepine-binding site of the GABA-A receptor", "assay": "Displacement of tritiated flunitrazepam from brain membranes", "settings": "read-out: IC50 Flu / BZ receptor"}, "[2]": {"system": "GABA-binding site of the GABA-A receptor", "assay": "Displacement of tritiated muscimol from brain membranes", "settings": "for Muscimol: stimulation: stimulation instead of displacement"}, "[3]": {"biological_target": "Ro15-4513 binding (GABA-A receptor)", "assay": "Ro15-4513 displacement", "settings": "for Ro15-4513 displacement: 100 μM"}, "[4]": {"biological_target": "T1, benzodiazepine-binding site of the GABA-A receptor (Rattus norvegicus, UniProt P18508+P62813)", "T1 construct": "IC50 Flu / BZ receptor; other: cerebellum (ce); other: cerebellum (ce; BZ1 subtype); other: 10 μM; cerebellum; other: 100 μM; other: 0.5 μM", "T1 sequence (P62813 28-455)": "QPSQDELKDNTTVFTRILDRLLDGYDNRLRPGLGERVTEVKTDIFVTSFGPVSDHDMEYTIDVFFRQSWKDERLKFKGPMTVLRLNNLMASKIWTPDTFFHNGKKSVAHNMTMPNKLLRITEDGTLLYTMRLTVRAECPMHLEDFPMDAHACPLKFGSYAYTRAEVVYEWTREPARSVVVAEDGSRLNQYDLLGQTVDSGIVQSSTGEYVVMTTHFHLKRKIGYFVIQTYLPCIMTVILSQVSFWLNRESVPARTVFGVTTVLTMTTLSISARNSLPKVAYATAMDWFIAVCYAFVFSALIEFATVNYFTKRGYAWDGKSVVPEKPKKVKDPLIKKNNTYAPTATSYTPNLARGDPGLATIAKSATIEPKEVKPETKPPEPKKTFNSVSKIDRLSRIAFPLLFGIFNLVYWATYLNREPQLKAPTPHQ", "T1 sequence (P18508 39-466)": "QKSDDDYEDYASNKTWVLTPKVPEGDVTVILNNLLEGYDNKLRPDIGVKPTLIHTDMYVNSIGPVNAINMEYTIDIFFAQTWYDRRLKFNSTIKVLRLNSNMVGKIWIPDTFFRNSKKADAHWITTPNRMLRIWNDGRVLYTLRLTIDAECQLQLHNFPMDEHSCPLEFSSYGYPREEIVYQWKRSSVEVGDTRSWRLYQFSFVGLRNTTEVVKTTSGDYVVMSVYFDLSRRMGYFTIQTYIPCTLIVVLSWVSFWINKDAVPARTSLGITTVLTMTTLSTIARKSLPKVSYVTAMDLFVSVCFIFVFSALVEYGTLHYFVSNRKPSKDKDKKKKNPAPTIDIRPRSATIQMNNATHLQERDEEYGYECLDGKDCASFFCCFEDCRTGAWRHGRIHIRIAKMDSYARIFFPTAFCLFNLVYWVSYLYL", "T1 sequence (P63138 26-474 partner)": "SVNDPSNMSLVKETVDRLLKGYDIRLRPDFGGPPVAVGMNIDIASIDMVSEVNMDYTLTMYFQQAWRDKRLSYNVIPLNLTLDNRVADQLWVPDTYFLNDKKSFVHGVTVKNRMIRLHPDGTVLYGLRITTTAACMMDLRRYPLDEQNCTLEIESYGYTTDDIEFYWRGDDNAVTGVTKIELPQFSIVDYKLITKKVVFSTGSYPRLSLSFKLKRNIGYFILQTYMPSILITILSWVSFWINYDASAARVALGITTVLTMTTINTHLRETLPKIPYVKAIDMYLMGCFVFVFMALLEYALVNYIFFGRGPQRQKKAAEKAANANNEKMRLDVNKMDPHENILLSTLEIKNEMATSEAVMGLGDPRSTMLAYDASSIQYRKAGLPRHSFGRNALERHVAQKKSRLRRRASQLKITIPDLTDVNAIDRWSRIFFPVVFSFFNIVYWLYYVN", "assay": "Displacement of tritiated flunitrazepam from brain membranes", "settings": "tissue not stated; for inhibition at 100 µM: read-out: Inhibition of the tritiated ligands % Flu (100 μM)"}, "[5]": {"biological_target": "picrotoxin-binding site of the GABA-A receptor", "assay": "Displacement of 35S-TBPS from brain membranes", "design": "species or system rats", "settings": "for pIC50: tissue not stated"}, "[6]": {"biological_target": "T2, α1β2γ2 subtype of the GABA receptor (Rattus norvegicus, UniProt P18508+P62813+P63138)", "T2 construct": "expressed in transfected cells; host or cells: Xenopus laevis oocytes (cRNA injection)", "T2 sequence (P62813 28-455)": "as the sequence (P62813 28-455) above", "T2 sequence (P63138 25-474 limits assumed)": "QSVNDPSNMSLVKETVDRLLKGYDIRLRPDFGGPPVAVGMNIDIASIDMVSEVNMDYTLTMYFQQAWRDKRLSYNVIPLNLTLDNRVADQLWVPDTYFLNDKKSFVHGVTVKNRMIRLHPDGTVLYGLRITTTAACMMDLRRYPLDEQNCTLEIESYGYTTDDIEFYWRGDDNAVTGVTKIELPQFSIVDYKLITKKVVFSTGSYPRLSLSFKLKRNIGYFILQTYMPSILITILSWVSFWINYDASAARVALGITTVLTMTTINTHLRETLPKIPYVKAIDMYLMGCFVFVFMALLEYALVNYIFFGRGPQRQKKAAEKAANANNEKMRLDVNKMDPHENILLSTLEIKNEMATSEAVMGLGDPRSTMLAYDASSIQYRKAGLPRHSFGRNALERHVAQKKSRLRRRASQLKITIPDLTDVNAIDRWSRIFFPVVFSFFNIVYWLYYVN", "T2 sequence (P18508 39-466)": "as the sequence (P18508 39-466) above", "assay": "Electrophysiology: modulation of GABA currents in Xenopus oocytes expressing recombinant GABA-A receptors", "assay_type": "cell-based", "settings": "for % stimulation of the GABA currents / % stimulation of the GABA currents (100 μM): α1β2γ2 in oocytes; for % stimulation of the GABA currents (100 μM): 100 μM compound with GABA"}, "[7]": {"system": "recombinant receptors of the composition of αxβ2γ2 subunits in which x=1, 2, 3, 5, 6", "assay": "Stimulation of the GABA current at recombinant receptors with other α subunits", "assay_type": "cell-based", "settings": "α1 replaced by the α2, α3, α5 or α6 subunit"}, "[8]": {"biological_target": "T3, picrotoxin-binding site of the GABA-A receptor", "T3 construct": "other: cerebellum", "assay": "Displacement of 35S-TBPS from brain membranes", "design": "species or system rats", "settings": "cerebellum"}, "[9]": {"biological_target": "T4, picrotoxin-binding site of the GABA-A receptor", "T4 construct": "other: cortex", "assay": "Displacement of 35S-TBPS from brain membranes", "design": "species or system rats", "settings": "cortex"}}, "note": "pIC50: −log10 of the molar value. Like-named read-outs stand apart in the source and are kept apart here."}
{"molecule": "O=C1CCC(C2c3ccccc3CCN2S(=O)(=O)c2ccc(C(F)(F)F)cc2)O1", "note": "(mixture of isomers) [Compound 70]", "values": [{"measurement": "pIC50", "setting": "[1]; tissue not stated", "result": "< 4.00"}, {"measurement": "Muscimol: stimulation", "setting": "[2]; 100 μM", "result": "weak stimulation at 100 μM in the cortex alone"}, {"measurement": "pIC50", "setting": "[3]", "result": "< 4.00"}]}
{"molecule": "O=C1CCC(C2c3ccccc3CCN2S(=O)(=O)c2ccc(OC(F)(F)F)cc2)O1", "note": "(mixture of isomers) [Compound 71]", "values": [{"measurement": "pIC50", "setting": "[4]; read-out: IC50 Flu / BZ receptor", "result": "< 4.00"}, {"measurement": "Muscimol: stimulation", "setting": "[2]; 100 μM", "result": "weak stimulation at 100 μM in the cortex alone"}, {"measurement": "pIC50", "setting": "[3]", "result": "< 4.00"}]}
{"molecule": "COc1ccc(S(=O)(=O)N2CCc3ccccc3C2C2CCC(=O)O2)cc1", "note": "(mixture of isomers) [Compound 72]", "values": [{"measurement": "Inhibition of the tritiated ligands % Flu (100 μM)", "setting": "[4]; 100 μM", "result": 0, "unit": "%"}, {"measurement": "pIC50", "setting": "[5]", "result": "~4.00"}, {"measurement": "Displacement of muscimol", "setting": "[2]; 100 μM", "result": "Muscimol: 100 μM = 0% Ro15-4513: 100 μM = 0%"}, {"measurement": "Ro15-4513 displacement", "setting": "[3]", "result": "Muscimol: 100 μM = 0% Ro15-4513: 100 μM = 0%"}]}
{"molecule": "COc1cc2c(cc1OC)[C@H]([C@@H]1CCC(=O)O1)NCC2", "note": "(racemic)", "values": [{"measurement": "melting point", "result": 119, "unit": "°C"}]}
{"molecule": "COc1cc2c(cc1OC)C([C@H]1C=CC(=O)O1)N(C(=O)OCc1ccccc1)CC2", "note": "(mixture of isomers) [Compound 32a, (±)-(1R,2′R)-1-(2,5-Dihydro-5-oxo-2-furyl)-2-N-benzyloxycarbonyl-6,7-dimethoxy-1,2,3,4-tetrahydroisoquinoline]", "values": [{"measurement": "stimulation of the GABA currents (in words)", "setting": "[6]; α1β2γ2 receptor", "result": "only weakly stimulates"}, {"measurement": "Displacement of muscimol", "setting": "[2]; concentration not given", "result": "Displacement of muscimol = 0%"}, {"measurement": "stimulation when the α1 subunit is replaced", "setting": "[7]", "result": "greatly increased"}]}
{"molecule": "O=C1CCC(C2c3ccccc3CCN2C(=O)OCc2ccccc2)O1", "note": "(racemic) [Compound 54, (±)-(1R,2′R)-2-N-Benzyloxycarbonyl-1-(2,3,4,5-tetrahydro-5-oxo-2-furyl)-1,2,3,4-tetrahydroisoquinoline]", "values": [{"measurement": "% stimulation of the GABA currents", "setting": "[6]; 0.1 μM compound", "result": "+4 ± 10%"}, {"measurement": "% stimulation of the GABA currents (100 μM)", "setting": "[6]", "result": "+351 ± 17%"}, {"measurement": "% stimulation of the GABA currents (100 μM)", "setting": "[6]; listed as (+/−) 54", "result": "+351%"}, {"measurement": "% of the stimulation inhibited by flumazenil", "setting": "[6]; stimulation by 10 μM compound, 1 μM flumazenil, α1β2γ2", "result": 78, "unit": "%"}, {"measurement": "pIC50", "setting": "[1]; cerebellum (ce; BZ1 subtype)", "result": 7.40}, {"measurement": "pIC50", "setting": "[1]; cortex (co = whole brain without cerebellum; BZ2 subtype)", "result": 6.82}, {"measurement": "Inhibition of the tritiated ligands % TBPS", "setting": "[5]; 10 μM", "result": 10, "unit": "μM = 0%"}, {"measurement": "pIC50", "setting": "[3]", "result": 6.70}]}
{"molecule": "O=C1C=C[C@H]([C@H]2c3ccccc3CCN2C(=S)Oc2ccccc2)O1", "note": "(racemic) [Compound 63]", "values": [{"measurement": "% stimulation of the GABA currents (100 μM)", "setting": "[6]", "result": "+155 ± 47%"}, {"measurement": "inhibition at 100 µM", "setting": "[4]; 100 μM", "result": 0, "unit": "%"}, {"measurement": "Displacement of muscimol", "setting": "[2]; 100 μM", "result": "Muscimol: 100 μM = 0% Ro15-4513: 100 μM = 0%"}, {"measurement": "Ro15-4513 displacement", "setting": "[3]", "result": "Muscimol: 100 μM = 0% Ro15-4513: 100 μM = 0%"}]}
{"molecule": "O=C1C=C[C@@H]([C@H]2c3ccccc3CCN2C(=S)Oc2ccccc2)O1", "note": "(racemic) [Compound 64]", "values": [{"measurement": "% stimulation of the GABA currents (100 μM)", "setting": "[6]", "result": "+265 ± 50%"}, {"measurement": "inhibition at 100 µM", "setting": "[4]; 100 μM", "result": 0, "unit": "%"}, {"measurement": "pIC50", "setting": "[8]", "result": 4.52}, {"measurement": "pIC50", "setting": "[9]", "result": "< 4.00"}, {"measurement": "Displacement of muscimol", "setting": "[2]; 100 μM", "result": "Muscimol: 100 μM = 0% Ro15-4513: 100 μM = 0%"}, {"measurement": "Ro15-4513 displacement", "setting": "[3]", "result": "Muscimol: 100 μM = 0% Ro15-4513: 100 μM = 0%"}]}
{"molecule": "O=C1CC[C@H]([C@H]2c3ccccc3CCN2S(=O)(=O)c2ccccc2)O1", "note": "(racemic) [Compound 65, (±)-(1R,2′R)-2-N-Benzenesulfonyl-1-(2,3,4,5-tetrahydro-5-oxo-2-furyl)-1,2,3,4-tetrahydroisoquinoline]", "values": [{"measurement": "% stimulation of the GABA currents (100 μM)", "setting": "[6]", "result": "+423%"}, {"measurement": "% stimulation of the GABA currents (100 μM)", "setting": "[6]; listed as (+/−) 65", "result": "+423%"}, {"measurement": "pIC50", "setting": "[5]", "result": "~4.00"}, {"measurement": "Muscimol: stimulation", "setting": "[2]; 100 μM", "result": "weak stimulation"}, {"measurement": "pIC50", "setting": "[3]", "result": 4.70}, {"measurement": "melting point", "result": "177 to 179", "unit": "°C"}]}
{"molecule": "O=C1CCC(C2c3ccccc3CCN2S(=O)(=O)c2ccc(Cl)cc2)O1", "note": "(racemic) [Compound 66, (±)-(1R,2′R)-1-(2,3,4,5-Tetrahydro-5-oxo-2-furyl)-2-N-p-chlorobenzenesulfonyl-1,2,3,4-tetrahydroisoquinoline]", "values": [{"measurement": "% stimulation of the GABA currents (100 μM)", "setting": "[6]", "result": "+479%"}, {"measurement": "% stimulation of the GABA currents (100 μM)", "setting": "[6]; listed as (+/−) 66", "result": "+479%"}, {"measurement": "melting point", "result": "145 to 147", "unit": "°C"}]}
{"molecule": "O=C1CCC(C2c3ccccc3C=CN2C(=O)OCc2ccccc2)O1", "note": "(racemic) [Compound 75, (±)-(1R,2′R)-2-N-Benzyloxycarbonyl-1-(2,3,4,5-tetrahydro-5-oxo-2-furyl)-1,2-dihydroisoquinoline]", "values": [{"measurement": "% stimulation of the GABA currents", "setting": "[6]; 10 μM compound", "result": "+148 ± 21% (10 μM)"}, {"measurement": "melting point", "result": "109 to 111", "unit": "°C"}]}
